The numbers were not newly measured in patent publication US12599665B2, “Gene fusions for control of genetically modified cells” (A2 Biotherapeutics, Inc., priority 2020, dated 2026), which cites them from elsewhere.

Data set [1] has as its target T1, ER(T2) (human ER LBD G400V/M543A/L544A) (Homo sapiens, UniProt P03372, G400V/L544A/M543A).
T1 construct: a human ER LBD and comprising point mutations G400V/M543A/L544A, which is termed ER(T2)
T1 sequence (P03372 311-547 G400V/M543A/L544A limits assumed): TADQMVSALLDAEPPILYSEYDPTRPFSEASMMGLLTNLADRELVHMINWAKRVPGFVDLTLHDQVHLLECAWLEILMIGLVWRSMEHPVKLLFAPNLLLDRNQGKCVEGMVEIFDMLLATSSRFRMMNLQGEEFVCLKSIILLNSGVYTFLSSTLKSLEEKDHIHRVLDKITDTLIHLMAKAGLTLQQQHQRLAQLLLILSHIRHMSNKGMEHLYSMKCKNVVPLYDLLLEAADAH
The note with it: ER(T2) vs ER(T); cited from earlier work.

In data set [2] the target is T2, Peroxisome proliferator-activated receptor-γ (NR1C3) (Homo sapiens, UniProt P37231).
T2 sequence (P37231 1-505): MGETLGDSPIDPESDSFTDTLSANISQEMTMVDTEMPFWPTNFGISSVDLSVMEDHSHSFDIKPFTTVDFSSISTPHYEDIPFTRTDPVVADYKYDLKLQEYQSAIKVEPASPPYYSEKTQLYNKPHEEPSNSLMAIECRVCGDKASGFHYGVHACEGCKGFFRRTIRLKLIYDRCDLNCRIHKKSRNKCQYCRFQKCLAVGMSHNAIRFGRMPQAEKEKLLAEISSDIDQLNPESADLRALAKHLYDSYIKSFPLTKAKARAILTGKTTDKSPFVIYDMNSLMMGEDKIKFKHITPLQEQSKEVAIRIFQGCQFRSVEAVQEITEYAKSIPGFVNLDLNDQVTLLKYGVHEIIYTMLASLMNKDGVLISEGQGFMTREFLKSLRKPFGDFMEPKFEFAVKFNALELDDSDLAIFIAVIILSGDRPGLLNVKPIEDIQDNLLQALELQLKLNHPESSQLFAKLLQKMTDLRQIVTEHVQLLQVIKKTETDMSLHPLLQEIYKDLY
The conditions noted are these: antagonist, Table 2, cited from earlier work.

Data set [3] deals with T3, Peroxisome proliferator-activated receptor-α (NR1C1) (Homo sapiens, UniProt Q07869).
T3 sequence (Q07869 1-468): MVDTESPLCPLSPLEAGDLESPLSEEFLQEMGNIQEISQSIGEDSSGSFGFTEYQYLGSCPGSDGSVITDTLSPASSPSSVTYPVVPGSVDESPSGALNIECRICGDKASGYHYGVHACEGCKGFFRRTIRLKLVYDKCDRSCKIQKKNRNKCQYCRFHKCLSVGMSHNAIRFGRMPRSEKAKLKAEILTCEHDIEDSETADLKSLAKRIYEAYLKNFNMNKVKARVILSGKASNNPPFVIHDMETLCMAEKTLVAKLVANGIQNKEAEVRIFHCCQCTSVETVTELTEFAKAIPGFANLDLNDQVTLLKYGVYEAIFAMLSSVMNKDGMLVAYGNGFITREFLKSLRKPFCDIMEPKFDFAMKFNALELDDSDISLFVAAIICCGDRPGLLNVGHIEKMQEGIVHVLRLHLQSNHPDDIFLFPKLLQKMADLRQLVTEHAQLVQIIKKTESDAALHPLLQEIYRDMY
The conditions noted are these: antagonist, Table 2; cited from earlier work.

The target in data set [4] is Estrogen receptor-β (NR3A2) (Homo sapiens, UniProt Q92731). The note with it: antagonist, Table 2; cited from earlier work.
The target in another data set is T4, Rev-Erb-α (NR1D1) (Homo sapiens, UniProt P20393).
T4 sequence (P20393 1-614): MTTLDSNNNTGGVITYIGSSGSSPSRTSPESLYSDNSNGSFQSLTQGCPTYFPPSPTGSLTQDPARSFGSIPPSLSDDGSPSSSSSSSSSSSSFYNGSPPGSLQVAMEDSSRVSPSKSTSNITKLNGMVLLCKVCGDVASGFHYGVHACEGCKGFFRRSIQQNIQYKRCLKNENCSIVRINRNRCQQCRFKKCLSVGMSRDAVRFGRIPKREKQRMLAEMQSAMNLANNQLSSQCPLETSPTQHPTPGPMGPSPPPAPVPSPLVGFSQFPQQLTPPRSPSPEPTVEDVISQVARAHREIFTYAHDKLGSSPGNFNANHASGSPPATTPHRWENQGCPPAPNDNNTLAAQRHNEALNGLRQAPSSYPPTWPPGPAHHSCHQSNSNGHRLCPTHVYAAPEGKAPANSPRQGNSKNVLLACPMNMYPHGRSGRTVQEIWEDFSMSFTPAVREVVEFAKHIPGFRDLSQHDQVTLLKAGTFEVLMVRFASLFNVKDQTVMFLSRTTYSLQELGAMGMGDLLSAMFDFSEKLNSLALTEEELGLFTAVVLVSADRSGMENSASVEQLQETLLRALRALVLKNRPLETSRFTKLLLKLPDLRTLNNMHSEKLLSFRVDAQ
The note with it: antagonist, Table 2; cited from earlier work.

Data set [5] concerns the target T5, Vitamin D receptor (Gallus gallus, UniProt O42392).
T5 sequence (O42392 1-451): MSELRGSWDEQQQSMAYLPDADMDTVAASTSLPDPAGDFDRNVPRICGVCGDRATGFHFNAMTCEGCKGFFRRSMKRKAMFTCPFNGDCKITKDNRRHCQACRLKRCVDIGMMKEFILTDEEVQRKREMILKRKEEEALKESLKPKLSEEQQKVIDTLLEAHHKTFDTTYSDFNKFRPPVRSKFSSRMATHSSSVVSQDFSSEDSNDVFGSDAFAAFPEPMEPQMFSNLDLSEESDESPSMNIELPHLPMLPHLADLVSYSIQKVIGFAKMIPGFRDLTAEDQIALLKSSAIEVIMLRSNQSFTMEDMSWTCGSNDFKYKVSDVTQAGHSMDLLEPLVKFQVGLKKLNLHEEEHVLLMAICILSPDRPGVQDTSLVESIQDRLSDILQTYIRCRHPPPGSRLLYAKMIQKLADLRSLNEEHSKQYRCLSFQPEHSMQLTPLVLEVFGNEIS
The conditions noted are these: antagonist, Table 2; Chicken; cited from earlier work.

Data set [6] addresses T6, Vitamin D receptor (Homo sapiens, UniProt P11473).
T6 sequence (P11473 1-427): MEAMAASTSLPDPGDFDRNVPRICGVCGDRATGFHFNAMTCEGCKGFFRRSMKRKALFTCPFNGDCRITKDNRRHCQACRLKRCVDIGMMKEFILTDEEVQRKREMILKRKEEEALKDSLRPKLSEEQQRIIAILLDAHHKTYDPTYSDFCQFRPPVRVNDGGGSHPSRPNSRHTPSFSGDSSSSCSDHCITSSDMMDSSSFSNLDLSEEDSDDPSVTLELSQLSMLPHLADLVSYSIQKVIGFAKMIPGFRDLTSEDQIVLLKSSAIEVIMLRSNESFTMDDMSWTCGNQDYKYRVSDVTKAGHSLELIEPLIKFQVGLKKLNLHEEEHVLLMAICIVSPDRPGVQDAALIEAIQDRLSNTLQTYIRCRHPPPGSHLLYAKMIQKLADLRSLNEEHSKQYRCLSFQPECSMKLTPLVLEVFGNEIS
The note with it: antagonist, Table 2; cited from earlier work.

In data set [7] the target is T7, Mineralocorticoid receptor (NR3C2) (Homo sapiens, UniProt P08235).
T7 sequence (P08235 1-984): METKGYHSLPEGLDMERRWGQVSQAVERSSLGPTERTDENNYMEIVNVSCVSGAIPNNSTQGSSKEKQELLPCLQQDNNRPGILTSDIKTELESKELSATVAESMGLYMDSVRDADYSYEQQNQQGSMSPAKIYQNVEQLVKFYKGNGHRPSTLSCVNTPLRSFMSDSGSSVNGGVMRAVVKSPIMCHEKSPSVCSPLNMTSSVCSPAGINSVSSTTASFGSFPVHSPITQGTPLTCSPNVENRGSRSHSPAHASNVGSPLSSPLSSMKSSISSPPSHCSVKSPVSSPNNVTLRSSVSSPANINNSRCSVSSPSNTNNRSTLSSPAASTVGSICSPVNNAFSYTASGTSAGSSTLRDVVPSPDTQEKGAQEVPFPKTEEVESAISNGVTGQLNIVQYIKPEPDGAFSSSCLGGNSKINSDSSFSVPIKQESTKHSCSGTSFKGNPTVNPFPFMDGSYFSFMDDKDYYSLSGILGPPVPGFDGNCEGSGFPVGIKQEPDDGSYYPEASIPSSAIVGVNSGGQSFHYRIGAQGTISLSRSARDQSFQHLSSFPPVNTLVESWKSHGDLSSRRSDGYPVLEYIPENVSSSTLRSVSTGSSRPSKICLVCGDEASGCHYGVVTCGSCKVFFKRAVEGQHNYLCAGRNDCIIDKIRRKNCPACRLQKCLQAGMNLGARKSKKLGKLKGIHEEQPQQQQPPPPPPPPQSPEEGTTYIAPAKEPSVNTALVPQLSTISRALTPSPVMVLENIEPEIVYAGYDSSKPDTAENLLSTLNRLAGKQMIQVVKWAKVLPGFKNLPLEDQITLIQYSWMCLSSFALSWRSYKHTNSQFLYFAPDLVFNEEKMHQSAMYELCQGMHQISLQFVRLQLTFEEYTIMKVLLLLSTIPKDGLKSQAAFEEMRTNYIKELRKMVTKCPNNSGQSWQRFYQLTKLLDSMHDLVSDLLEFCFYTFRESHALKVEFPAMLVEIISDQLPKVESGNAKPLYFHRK
The conditions noted are these: antagonist, Table 2; cited from earlier work.

The target of data set [8] is T8, Glucocorticoid receptor (NR3C1) (Homo sapiens, UniProt P04150).
T8 sequence (P04150 1-777): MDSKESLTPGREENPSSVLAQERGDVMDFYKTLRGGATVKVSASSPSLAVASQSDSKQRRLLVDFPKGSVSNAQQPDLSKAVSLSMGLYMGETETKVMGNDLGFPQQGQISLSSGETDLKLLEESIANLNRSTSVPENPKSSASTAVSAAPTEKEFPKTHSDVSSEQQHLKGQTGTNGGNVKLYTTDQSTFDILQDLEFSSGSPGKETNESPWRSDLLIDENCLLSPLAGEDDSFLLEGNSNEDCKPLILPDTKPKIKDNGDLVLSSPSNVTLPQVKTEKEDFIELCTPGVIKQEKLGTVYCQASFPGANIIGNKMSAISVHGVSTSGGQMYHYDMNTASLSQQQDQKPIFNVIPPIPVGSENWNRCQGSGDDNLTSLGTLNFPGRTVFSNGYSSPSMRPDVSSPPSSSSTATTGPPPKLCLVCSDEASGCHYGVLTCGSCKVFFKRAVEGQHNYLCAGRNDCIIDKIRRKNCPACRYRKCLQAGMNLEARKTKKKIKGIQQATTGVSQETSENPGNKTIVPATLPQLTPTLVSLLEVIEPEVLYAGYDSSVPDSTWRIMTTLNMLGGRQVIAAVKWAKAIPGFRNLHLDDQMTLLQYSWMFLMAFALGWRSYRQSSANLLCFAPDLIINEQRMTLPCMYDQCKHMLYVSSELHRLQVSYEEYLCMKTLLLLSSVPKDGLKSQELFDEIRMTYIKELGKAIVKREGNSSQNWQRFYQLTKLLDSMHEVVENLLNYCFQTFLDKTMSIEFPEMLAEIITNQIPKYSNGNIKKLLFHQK
The conditions noted are these: antagonist, Table 2; cited from earlier work.

Sequence of Estrogen receptor-β (NR3A2) (Q92731 whole entry): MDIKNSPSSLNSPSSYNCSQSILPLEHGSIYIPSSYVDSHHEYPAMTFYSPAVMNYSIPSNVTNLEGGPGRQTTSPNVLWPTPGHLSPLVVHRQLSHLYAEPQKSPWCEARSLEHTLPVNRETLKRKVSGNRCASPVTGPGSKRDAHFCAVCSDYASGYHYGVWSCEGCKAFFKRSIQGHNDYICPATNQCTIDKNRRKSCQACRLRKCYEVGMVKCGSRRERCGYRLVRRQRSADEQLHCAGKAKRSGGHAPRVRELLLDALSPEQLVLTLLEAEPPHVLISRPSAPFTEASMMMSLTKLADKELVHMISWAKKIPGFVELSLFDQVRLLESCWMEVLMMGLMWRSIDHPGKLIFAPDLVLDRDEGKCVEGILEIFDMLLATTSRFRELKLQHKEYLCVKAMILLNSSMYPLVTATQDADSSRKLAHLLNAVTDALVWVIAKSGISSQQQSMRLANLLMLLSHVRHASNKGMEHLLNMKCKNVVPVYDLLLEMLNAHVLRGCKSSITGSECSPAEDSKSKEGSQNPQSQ

With 4-hydroxytamoxifen [4-OH-Tamoxifen], in data set [1], the “sensitivity of ER(T2) to 4-OH-Tamoxifen relative to the ER(T) mutant” value is “roughly 10 fold”.
Regarding `COC(=O)[C@]12CCC(C)(C)C[C@H]1[C@H]1C(=O)C=C3[C@@]4(C)C=C(C#N)C(=O)C(C)(C)[C@@H]4CC[C@@]3(C)[C@]1(C)CC2` [CDDO-Me, Bardoxolone methyl], the pKi in data set [2] was 6.9).
Consider `CCC(=O)NC[C@H](Cc1ccc(OCCc2nc(-c3ccccc3)oc2C)cc1)N/C(C)=C\C(=O)c1ccc(C(F)(F)F)cc1` [GW6471], for which the pIC50 result in data set [3] is “(pIC50 6.6)”.
Consider `O=C(Nc1ccccc1)c1cc([N+](=O)[O-])ccc1Cl` [GW9662], for which, in data set [2] (Irreversible inhibition), the pIC50 result was “(pIC50 8.1)”.
Turning to `Oc1ccc(-c2c(-c3ccccc3)nn3c(C(F)(F)F)cc(C(F)(F)F)nc23)cc1` [PHTPP], the pKi entry in [4] is on record as “(pKi 6.9) (CAS”.
In the case of `CC[C@@H]1Cc2cc(O)ccc2C2=C1c1ccc(O)cc1C[C@H]2CC` [R,R-THC], the pKi in data set [4] is reported as 8.4) (CAS.
On to `CCOC(=O)C1Cc2ccccc2CN1C(=O)c1ccc(SC)s1` (stereo not drawn) [SR8278], for which the pIC50 at Rev-Erb-α (NR1D1) was 6.5) (CAS.
In the case of `C=C1C[C@H](C[C@@H](C)[C@H]2CC[C@H]3/C(=C/C=C4/C[C@@H](O)C[C@H](O)C4=C)CCC[C@]23C)OC1=O` [TEI-9647], the pIC50 result at Vitamin D receptor [5] is given as “(pIC50 8.2)”.
As for `C=C1/C(=C\C=C2/CCC[C@]3(C)[C@@H]([C@H](C)/C=C/[C@@H](O)C4(C(=O)OCCCC)CC4)CC[C@@H]23)C[C@@H](O)C[C@@H]1O` [ZK159222], on Vitamin D receptor [6], the pIC50 entry is reported as “(pIC50 7.5)”.
Consider `CCOc1ncc(C)c2c1[C@H](c1ccc(C#N)cc1OC)C(C(N)=O)=C(C)N2` [finerenone], for which the pIC50 result in data set [7] is “(pIC50 7.7),”.
As for `CN(C)c1ccc([C@H]2C[C@]3(C)[C@@H](CC[C@]3(O)CCCO)[C@@H]3CCC4=CC(=O)CCC4=C32)cc1` [onapristone], the pIC50 result in data set [7] is recorded as “(pIC50 6.3),”; in [8], “(pIC50 7.6),”.
